The test system of one data set is PTPRG. As to the kind of experiment: in vitro phosphatase activity (pNPP) on membranes from human primary monocytes. In kind it is biochemical. The settings on record: monocyte membranes, DMSO 7.25. The procedure:
We first tested the biochemical activity of the fusion peptide by performing in vitro assays of phosphatase activity on purified membranes isolated from human primary monocytes compared to membranes isolated from human primary polymorphonuclear cells (PMNs). Human primary monocytes and polymorphonuclear (PMNs) cells were isolated from whole blood of healthy donors. Purity of monocyte preparation was evaluated by flow cytometry after staining with fluorescein isothiocyanate (FITC)-conjugated anti-CD14 antibody and was more than 95%. Isolated cells were kept at 37° C. in standard adhesion buffer (PBS, 1 mM CaCl2, 1 mM MgCl2, 10% FBS, pH 7.2) and used within 1 h.
The phosphatase activity in membrane fractions isolated from human monocytes and PMNs was assessed. […] Cells were then sonicated twice (6 sec, 15% W) and centrifuged at 2000 rpm for 10 minutes. The supernatants were collected and centrifuged at 28000 rpm for 60 minutes. After centrifugation, the supernatants were discarded, and the membrane pellets were dissolved in 20 mM tris pH 7.4. Equal amount of membrane fractions were added to pNPP buffer containing 20 mM tris, 10 mM DTT and 2 mM pNPP. Following, DMSO and peptides were added. After 30 minutes of incubation, levels of de-phosphorylation, in presence or absence of orthovanadate, were measured at 405 nm by a plate reader. Values are absorbance at 405 nn shown as percent fold increase over the blank; mean values of three experiments are shown. *p<0.001 vs vehicle (DMSO).

Another data set concerns human neutrophils. As to the kind of experiment: fMLP-triggered adhesion of neutrophils (PMNs) to ICAM-1. The class given is cell-based. Conditions: for adhesion of human neutrophils to ICAM-1 (adherent cells), Resting (no stimulation): mean ± SD. The protocol:
We investigated the functional effect of PTPRG activation on integrin activation and mediated adhesion by chemoattractants in human primary monocytes and PMNs in a static and flow adhesion assays. Briefly, human primary monocytes or polymorphonuclear cells were suspended at 5×10^6/ml in standard adhesion buffer. Adhesion assays were performed on 18-well glass slides coated with 1 mg/ml human fibrinogen or with 1 μg/ml human ICAM-1 in PBS; 20 μl of cell suspension were added to the coated wells and stimulated for 1 min at 37° C. with 5 μl of fMLP, 0.05 μM final concentration. After rapid washing, adherent cells were fixed in ice-cold 1.5% glutaraldehyde in PBS, and still images of adherent cells in 0.2 mm^2 fields were acquired al 20× phase contrast magnification, NA 0.40, with a charge-coupled device camera (ICD-42B; Ikegami) connected to an inverted microscope (IX50; Olympus). Image acquisition and computer-assisted enumeration of adherent cells were performed with ImageJ (National Institute of Health).
Chemokine-triggered adhesion of human neutrophils was measured similarly. Freshly isolated, non-activated human neutrophils incubated with buffer or increasing concentrations of TAT-ICD and then spotted onto ICAM-1-coated slides. Integrin-mediated adhesion was triggered using 50 nM fMLP and the adherent cells were fixed and enumerated as described for the lymphocytes above.

The next data set has as its system U251 GBM cells. The data set is described as follows: VYBRANT DyeCycle Violet early apoptosis, U251 GBM cells. In kind it is cell-based. The procedure: Cell viability and survival was measured using the MTT assay, a colorimetric assay for assessing cell metabolic activity set up under conditions where the absorption reflects the number of viable cells present (Table 21 and 22) and expressed as relative absorption at 570 nm. Early apoptosis was measured using VYBRANT DyeCycle Violet stain (Molecular Probes), a DNA-selective, cell membrane-permeant dye that can distinguish the compacted state of the nuclear chromatin in apoptotic cells as determined by flow cytometry and presented as the percent of cells that are apoptotic (Table 23 and 24). The actual number of cells following treatment with TAT-ICD or TAT alone (Table 25) was determined using flow cytometry compared to an input of 5,000 cells at time zero. To confirm apoptosis the TUNEL labeling assay, which detects DNA strand breaks in apoptotic cells by fluorescence microscopy, was also used to examine U251 cells treated with the PTPRG WD. Briefly, the assay used an optimized terminal transferase ([…]) to label 3′OH ends in genomic DNA with TMR-dUTP, thus allowing the measurement and quantification of cell death by apoptosis. U251 cells were pretreated for 1, 3 and 6 hours with 50 μM P1-WD. Then cells were fixed and permeabilized, incubated with TUNEL reaction mixture for 1 h at RT, and then stained with DAPI (for nuclei detection) and with Alexa670-Phalloidin (to detect actin in cell membranes). After the staining steps, cells were visualized with a confocal microscope.

A further data set deals with bEnd3 endothelial cells. As to the kind of experiment: MTT assay, bEnd3 endothelial cells. In kind it is cell-based. (Tetrazolium assays rely on reduction of a dye to a coloured formazan, in cell work by metabolically active cells.)
The next data set deals with DBTRG GBM cells. The data set is described as follows: VYBRANT early apoptosis, DBTRG GBM cells. In kind it is cell-based, human. Conditions: 0.5 μM.
The subject of a further data set is U87 GBM cells. The data set is described as follows: VYBRANT apoptosis, U87 GBM cells. In kind it is cell-based. Conditions: 0.5 μM.
Where [1] appears, read: P1 or P1-WD 50 μM, 6 h, Control 5.
Where [2] appears, read: P1 or P1-WD 50 μM, 9 h, Control 12.
[3] abbreviates: P1 or P1-WD 50 μM, 24 h, Control 8.

This is an account of results in patent publication US10898548B2, “Modulators of protein tyrosine phosphatase and uses thereof” (LEUVAS THERAPEUTICS, priority 2015, dated 2021).

“Also recorded” adds a separate entry of the source. Marks after values point to notes of the source that are not given here.

As to “P1-WD: fusion Trojan peptide SEQ ID 3: Penetratin, glycine, PTPRG wedge domain aa 831-856; RQIKIWFQNRRMKWKKGKQFVKHIGELYSNNQHGFSEDFEEVQ (listed as Homo sapiens)”, the “phosphatase activity, absorbance at 405 nm as percent fold increase over the blank” value was 34.62* % in the data set with PTPRG (P1-WD 50 micromolar), 86.70* % with PTPRG (P1-WD 100 micromolar) and 109.00* % with PTPRG (P1-WD 200 micromolar). Further, the “chemoattractant-induced adhesion / integrin activation of PMNs” value in the data set on human neutrophils (human PMNs) is listed as “completely unaffected; also recorded: not able to block”. For the same substance, the “percent of apoptotic cells (early apoptosis)” value (from here on “percent … (early apoptosis)”) with U251 GBM cells (P1-WD 10 μM, 6 h, Control 5) worked out at 13%; in the data set on U251 GBM cells (P1-WD 10 μM, 9 h, Control 12) it was 21%; with U251 GBM cells (P1-WD 10 μM, 24 h, Control 8), 25%; in the data set on U251 GBM cells (P1-WD 25 μM, 6 h, Control 5), 21%; in the data set with U251 GBM cells (P1-WD 25 μM, 9 h, Control 12), 30%; in the data set on U251 GBM cells (P1-WD 25 μM, 24 h, Control 8), 30%. For the same substance, the “percent … (early apoptosis)” value was 33% in the data set on U251 GBM cells (setting [1]), 40% in the data set on U251 GBM cells (setting [2]) and 40% in the data set on U251 GBM cells (setting [3]).
For “TAT-ICD: fusion recombinant protein SEQ ID 5: PTPRG intracellular domain aa 797-1445 fused to 13 aa TAT sequence”, the “mean absorbance in the MTT assay” value in the data set with bEnd3 endothelial cells (0.1 uM, 24 hours, CTRL 352) is recorded as 373; in the data set on bEnd3 endothelial cells (0.1 uM, 48 hours, CTRL 523), 513; in the data set with bEnd3 endothelial cells (0.25 uM, 24 hours, CTRL 352), 378; with bEnd3 endothelial cells (0.25 uM, 48 hours, CTRL 523), 579; with bEnd3 endothelial cells (0.5 uM, 24 hours, CTRL 352) it was 393; in the data set on bEnd3 endothelial cells (0.5 uM, 48 hours, CTRL 523) it was 545. In addition, the “percent of apoptotic cells by flow cytometry” value with DBTRG GBM cells (1 h, Control 14) was 25%; with DBTRG GBM cells (3 h, Control 16), 40%; in the data set on DBTRG GBM cells (6 h, Control 33), 70%. For the same substance, the “percent of apoptotic cells” value in the data set on U87 GBM cells (1 hour, Control 10) came out at 67%; with U87 GBM cells (3 hours, Control 3) it was 60%; in the data set with U87 GBM cells (6 hours, Control 14), 70%. Further, the “adhesion of human neutrophils to ICAM-1 (adherent cells), Resting (no stimulation)” value in the data set with human neutrophils (TAT-ICD 0.5 micromolar) and in the data set with human neutrophils (TAT-ICD 1.0 micromolar) was 12 ± 5 in each case. The “percent … (early apoptosis)” value amounted to 2.6% in the data set with U251 GBM cells (TAT-ICD 0.5 uM, 6 hr, CTRL 4.6); 14.0% with U251 GBM cells (TAT-ICD 0.5 uM, 9 hr, CTRL 6.0); 21.0% in the data set with U251 GBM cells (TAT-ICD 0.5 uM, 24 hr, CTRL 7.0); 6.0% in the data set with U251 GBM cells (TAT-ICD 1 uM, 6 hr, CTRL 4.6); 17.0% in the data set on U251 GBM cells (TAT-ICD 1 uM, 9 hr, CTRL 6.0); 25.0% in the data set on U251 GBM cells (TAT-ICD 1 uM, 24 hr, CTRL 7.0). The “percent … (early apoptosis)” value in the data set with U251 GBM cells (TAT-ICD 2 uM, 6 hr, CTRL 4.6) is listed as 15.0%; with U251 GBM cells (TAT-ICD 2 uM, 9 hr, CTRL 6.0), 25.0%; in the data set on U251 GBM cells (TAT-ICD 2 uM, 24 hr, CTRL 7.0), 30.0%.
For “TAT (GRKKRRQRRRPPQ; listed as Homo sapiens) [reference compound]”, the “mean absorbance in the MTT assay” value with bEnd3 endothelial cells (0.1 uM, 24 hours, CTRL 352) was determined as 354; in the data set with bEnd3 endothelial cells (0.1 uM, 48 hours, CTRL 523), 503; in the data set with bEnd3 endothelial cells (0.25 uM, 24 hours, CTRL 352), 338; in the data set on bEnd3 endothelial cells (0.25 uM, 48 hours, CTRL 523), 540; in the data set with bEnd3 endothelial cells (0.5 uM, 24 hours, CTRL 352) it was 328; in the data set on bEnd3 endothelial cells (0.5 uM, 48 hours, CTRL 523), 528. Besides, the “percent of apoptotic cells by flow cytometry” value was determined as 10% in the data set on DBTRG GBM cells (1 h, Control 14); 10% in the data set on DBTRG GBM cells (3 h, Control 16); 7% in the data set on DBTRG GBM cells (6 h, Control 33). Besides, the “percent of apoptotic cells” value with U87 GBM cells (1 hour, Control 10) turned out to be 20%; in the data set with U87 GBM cells (3 hours, Control 3), 10%; with U87 GBM cells (6 hours, Control 14) it was 20%. Also, the “percent … (early apoptosis)” value with U251 GBM cells (TAT 50 uM, 6 hr, CTRL 4.6) was 10.0%; in the data set with U251 GBM cells (TAT 50 uM, 9 hr, CTRL 6.0) it was 11.0%; with U251 GBM cells (TAT 50 uM, 24 hr, CTRL 7.0), 8.0%.
With “P1: Penetratin delivery peptide, 16 aa RQIKIWFQNRRMKWKK (SEQ ID 4), control [reference compound]”, in the data set on PTPRG (control peptide, concentration not given), the “phosphatase activity, absorbance at 405 nm as percent fold increase over the blank” value stood at 16.00%. Further, the “percent … (early apoptosis)” value in the data set with U251 GBM cells (setting [1]) amounted to 8%; with U251 GBM cells (setting [2]) it was 15%; with U251 GBM cells (setting [3]) it was 15%.
